Series [1] relates to rat. Conditions: Subchronic oral toxicity in rodents, fischer, Feed, dose end: 13 week, group: systemic.
Series [2] relates to rat. The following applies: Subchronic oral toxicity in rodents, fischer, Feed, dose end: 13 week, group: systemic. This is another data set of the same source.
The subject of series [3] is mouse. Conditions: Subchronic oral toxicity in rodents, b6c3f1, Feed, dose end: 13 week, group: systemic.
For series [4], the system named is mouse. Conditions: Multigenerational reproductive toxicity study, cd1, Oral, Feed, dose end: 1 generation.
In series [5] the test system is rat. Conditions: Carcinogenicity, sprague dawley, Oral, Gavage/Intubation, dose end: 105 week, group: systemic.
For another series, the system named is rabbit. Conditions: Subchronic dermal toxicity, new zealand white, Topical, dose end: 13 week, group: systemic, systemic / in life observation / clinical signs / desquamation + systemic / in life observation / clinical signs / erythema + systemic / in ….
Series [6] relates to rat. The following applies: Multigenerational reproductive toxicity study, wistar, Oral, Feed, dose end: 2 generation.
Series [7] has as its system mouse. Conditions: Subchronic oral toxicity in rodents, cd1, Feed, dose end: 8 week.
Series [8] relates to dog. The following applies: Subchronic oral toxicity in nonrodent, beagle, Feed, dose end: 6 month, group: cholinesterase, cholinesterase / cholinesterase / cholinesterase / erythrocyte cholinesterase (che) + cholinesterase / cholinesterase / cholinesterase / ….
Series [9] has as its system mouse. Conditions: Combined chronic toxicity/carcinogenicity, cd1, Oral, Feed, dose end: 91 week.
Series [10] deals with rat. The following applies: Combined chronic toxicity/carcinogenicity, sprague dawley, Oral, Feed, dose end: 24 month.
Series [11] concerns dog. The following applies: Chronic toxicity, beagle, Oral, Feed, dose end: 52 week.
[12] abbreviates: systemic / pathology microscopic / kidney / cytoplasmic alteration + systemic / pathology microscopic / kidney / dilatation + systemic / ….
[13] abbreviates: systemic / pathology microscopic / kidney / regeneration + systemic / urinalysis / aspartate aminotransferase (ast/sgot) / aspartate ….
Where [14] appears, read: systemic / pathology microscopic / kidney / dilatation + systemic / pathology microscopic / kidney / hyaline droplet + systemic / pathology ….
[15] abbreviates: systemic / pathology microscopic / kidney / regeneration + systemic / clinical chemistry / thyroxine (t4) / thyroxine (t4), free + systemic….
The mark [16] stands for this setting: systemic / clinical chemistry / alanine aminotransferase (alt/sgpt) / alanine aminotransferase (alt/sgpt) + systemic / clinical chemistry / ….
Where [17] appears, read: systemic / in life observation / body weight / body weight + systemic / organ weight / liver / absolute.
Where [18] appears, read: group: offspring, systemic / in life observation / body weight / offspring (pup) weight + systemic / in life observation / body weight / offspring (pup) ….
Where [19] appears, read: group: parental, systemic / in life observation / body weight / body weight + systemic / in life observation / mortality / mortality + systemic / in life ….
The mark [20] stands for this setting: group: reproductive, reproductive / offspring survival early / birth index / live birth index.
The mark [21] stands for this setting: systemic / clinical chemistry / [other] / [other] + systemic / clinical chemistry / thyroxine (t4) / thyroxine (t4), total + systemic / ….
The mark [22] stands for this setting: systemic / clinical chemistry / [other] / [other] + systemic / organ weight / liver / relative to body weight + systemic / clinical ….
Setting [23] is: group: cholinesterase, cholinesterase / cholinesterase / cholinesterase / cholinesterase (che).
Setting [24] is: group: cholinesterase, cholinesterase / cholinesterase / cholinesterase / cholinesterase (che) + cholinesterase / cholinesterase / cholinesterase / brain ….
[25] abbreviates: group: offspring, developmental / offspring survival late / lactation index / lactation index + developmental / offspring survival late / [other] / [other] + ….
Setting [26] is: group: offspring, systemic / in life observation / clinical signs / no milk in stomach.
Setting [27] is: group: parental, systemic / in life observation / body weight / body weight gain + systemic / in life observation / clinical signs / hyperreflexitivity.
Where [28] appears, read: group: reproductive, reproductive / offspring survival early / litter size / litter size.
[29] abbreviates: group: cholinesterase, cholinesterase / cholinesterase / cholinesterase / plasma cholinesterase (che) + cholinesterase / cholinesterase / cholinesterase / ….
The mark [30] stands for this setting: group: systemic, systemic / in life observation / body weight / body weight + systemic / in life observation / body weight / body weight gain + systemic / in….
Where [31] appears, read: group: cholinesterase, cholinesterase / cholinesterase / cholinesterase / brain cholinesterase (che) + cholinesterase / cholinesterase / cholinesterase / ….
[32] abbreviates: group: systemic, systemic / pathology microscopic / intestine small / hyperplasia + systemic / in life observation / mortality / mortality + systemic / ….
Setting [33] is: group: systemic, systemic / pathology microscopic / intestine small / hyperplasia + systemic / pathology microscopic / bone marrow / hyperplasia.
Setting [34] is: group: cholinesterase, cholinesterase / cholinesterase / cholinesterase / plasma cholinesterase (che).
The mark [35] stands for this setting: group: cholinesterase, cholinesterase / cholinesterase / cholinesterase / plasma cholinesterase (che) + cholinesterase / cholinesterase / cholinesterase / brain ….
The mark [36] stands for this setting: group: systemic, systemic / pathology microscopic / pancreas / atrophy.
Where [37] appears, read: group: systemic, systemic / pathology microscopic / pancreas / atrophy + systemic / pathology microscopic / pancreas / adenoma + systemic / in life ….
Where [38] appears, read: group: cholinesterase, cholinesterase / cholinesterase / cholinesterase / erythrocyte cholinesterase (che) + cholinesterase / cholinesterase / cholinesterase / ….
Setting [39] is: group: reproductive, reproductive / reproductive performance / estrous cycle / abnormal.
The mark [40] stands for this setting: group: systemic, systemic / organ weight / liver / absolute + systemic / organ weight / liver / relative to brain weight.
[41] abbreviates: group: systemic, systemic / organ weight / liver / absolute + systemic / organ weight / liver / relative to brain weight + systemic / clinical chemistry / ….

For the molecule `Clc1cc(Cl)c(Cl)cc1Cl` [1,2,4,5-Tetrachlorobenzene], the LOAEL was 7.1 mg/kg/day with rat [1] (setting [12]); 7.1 mg/kg/day in the series on rat [2] (setting [14]); > 450 mg/kg/day with mouse [3] (setting [16]); > 250 mg/kg/day in the series with mouse [4] (setting [18]); > 250 mg/kg/day in the series on mouse [4] (setting [19]); > 250 mg/kg/day with mouse [4] (setting [20]). Besides, the NOAEL with rat [1] (setting [12]) was 2.1 mg/kg/day; in the series on rat [2] (setting [14]), 2.1 mg/kg/day; in the series on mouse [3] (setting [16]), ≥ 450 mg/kg/day; with mouse [4] (setting [18]), ≥ 250 mg/kg/day; with mouse [4] (setting [19]), ≥ 250 mg/kg/day; in the series on mouse [4] (setting [20]), ≥ 250 mg/kg/day. Moreover, the LEL was 2.1 mg/kg/day in the series on rat [1] (setting [13]); 2.1 mg/kg/day with rat [2] (setting [15]); 4 mg/kg/day with mouse [3] (setting [17]); 100 mg/kg/day with mouse [4] (setting [18]); 100 mg/kg/day in the series with mouse [4] (group: parental, systemic / in life observation / body weight / body weight + systemic / organ weight / testes / absolute); 100 mg/kg/day in the series with mouse [4] (setting [20]). Also, the NEL with rat [1] (setting [13]) is < 2.1 mg/kg/day; with rat [2] (setting [15]), < 2.1 mg/kg/day; in the series on mouse [3] (setting [17]), < 4 mg/kg/day; in the series with mouse [4] (setting [18]), 40 mg/kg/day; in the series with mouse [4] (group: parental, systemic / in life observation / body weight / body weight + systemic / in life observation / mortality / mortality), 40 mg/kg/day; in the series on mouse [4] (setting [20]), 40 mg/kg/day.
On to `Clc1cc2oc3c(Cl)c(Cl)c(Cl)cc3c2cc1Cl` [2,3,4,7,8-Pentachlorodibenzofuran], for which, in the series with rat [5] (setting [21]), the LOAEL was > 0.0002 mg/kg/day and the NOAEL is ≥ 0.0002 mg/kg/day. In the series on rat [5] (setting [22]), the LEL is 6e-06 mg/kg/day and the NEL was < 6e-06 mg/kg/day.
As for `CC(=O)O.CC(=O)O.NC(=NCCCCCCN=C(N)/N=C(\N)Nc1ccc(Cl)cc1)/N=C(\N)Nc1ccc(Cl)cc1` [Chlorhexidine diacetate], in the series on rabbit, the LEL is 250 mg/kg/day, the LOAEL turned out to be 250 mg/kg/day, the NEL was < 250 mg/kg/day and the NOAEL is < 250 mg/kg/day.
Regarding `CCNP(=S)(OC)O/C(C)=C/C(=O)OC(C)C` (stereo not drawn) [Propetamphos], the LEL came out at 2.1 mg/kg/day in the series with rat [6] (setting [23]); 0.5 mg/kg/day with rat [6] (setting [26]); 3.7 mg/kg/day with rat [6] (group: parental, systemic / in life observation / body weight / body weight gain); 0.5 mg/kg/day in the series on rat [6] (setting [28]); 1 mg/kg/day in the series on mouse [7] (setting [29]); 59 mg/kg/day in the series on mouse [7] (setting [30]). Besides, the LEL is 0.083 mg/kg/day with dog [8]; 1 mg/kg/day in the series on mouse [9] (setting [31]); 6 mg/kg/day in the series on mouse [9] (setting [33]); 0.632 mg/kg/day in the series with rat [10] (setting [34]); 0.689 mg/kg/day in the series with rat [10] (setting [36]); 0.59 mg/kg/day in the series with dog [11] (setting [38]). Moreover, the LEL in the series with dog [11] (setting [39]) stood at 3.39 mg/kg/day; in the series on dog [11] (setting [40]) it was 0.59 mg/kg/day. The LOAEL stood at 2.1 mg/kg/day in the series with rat [6] (setting [23]); 8 mg/kg/day in the series with rat [6] (setting [25]); 7.1 mg/kg/day in the series on rat [6] (setting [27]); 11.3 mg/kg/day in the series on rat [6] (group: reproductive, reproductive / reproductive performance / implantations / implantations + reproductive / reproductive performance / mating / mating + …); 1 mg/kg/day in the series with mouse [7] (setting [29]); 59 mg/kg/day in the series on mouse [7] (group: systemic, systemic / in life observation / body weight / body weight + systemic / in life observation / body weight / body weight gain). The LOAEL in the series with dog [8] worked out at 0.165 mg/kg/day; in the series on mouse [9] (setting [31]), 1 mg/kg/day; in the series on mouse [9] (setting [33]), 6 mg/kg/day; with rat [10] (setting [34]) it was 0.632 mg/kg/day; in the series with rat [10] (setting [36]), 0.689 mg/kg/day; in the series with dog [11] (setting [38]), 0.59 mg/kg/day. Further, the LOAEL in the series with dog [11] (setting [39]) was > 3.39 mg/kg/day; with dog [11] (setting [40]) it was 0.59 mg/kg/day. The NEL is 0.3 mg/kg/day in the series on rat [6] (setting [24]); < 0.5 mg/kg/day in the series with rat [6] (setting [26]); 0.5 mg/kg/day with rat [6] (group: parental, systemic / in life observation / body weight / body weight gain + systemic / in life observation / clinical signs / hyperreflexitivity + …); < 0.5 mg/kg/day with rat [6] (setting [28]); < 1 mg/kg/day with mouse [7] (setting [29]); 28 mg/kg/day in the series with mouse [7] (setting [30]). Further, the NEL with dog [8] was < 0.083 mg/kg/day; in the series on mouse [9] (setting [31]) it was 0.05 mg/kg/day; in the series on mouse [9] (setting [32]), 1 mg/kg/day; in the series on rat [10] (setting [35]), 0.376 mg/kg/day; in the series with rat [10] (setting [37]) it was 0.412 mg/kg/day; in the series with dog [11] (setting [38]), 0.13 mg/kg/day. The NEL with dog [11] (setting [39]) came to 0.67 mg/kg/day; with dog [11] (setting [41]), 0.13 mg/kg/day. In addition, the NOAEL in the series on rat [6] (setting [24]) is 0.3 mg/kg/day; with rat [6] (setting [25]), 3 mg/kg/day; with rat [6] (setting [27]), 2.8 mg/kg/day; in the series with rat [6] (group: reproductive, reproductive / reproductive performance / implantations / implantations + reproductive / reproductive performance / mating / mating) it was 3.7 mg/kg/day; with mouse [7] (setting [29]), < 1 mg/kg/day; in the series on mouse [7] (setting [30]), 28 mg/kg/day. The NOAEL in the series with dog [8] worked out at 0.083 mg/kg/day; with mouse [9] (setting [31]), 0.05 mg/kg/day; in the series on mouse [9] (setting [32]), 1 mg/kg/day; in the series with rat [10] (setting [35]), 0.376 mg/kg/day; in the series on rat [10] (setting [37]), 0.412 mg/kg/day; with dog [11] (setting [38]), 0.13 mg/kg/day. Further, the NOAEL with dog [11] (setting [39]) was ≥ 3.39 mg/kg/day; in the series on dog [11] (setting [41]) it was 0.13 mg/kg/day.

For the origin of these results see EPA's ToxRefDB 2.
